Source: US11028090B2 (Dong Wha Pharm. Co., Ltd., priority 2017, dated 2021)
Where “and” joins values, the source holds several entries; their conditions need not be identical. Equal values may be shown once. Read-outs that look alike come from different tables or passages of the source.

Target: BRD4 (BD1+BD2) bromodomain (Homo sapiens (Human), UniProt O60885)
Test: BRD4 binding inhibition (AlphaScreen, GST-BRD4 vs tetraacetylated histone H4 peptide)
How it was run: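 GST-BRD4 (BD1+BD2) and biotinylated tetraacetyl-histone H4 peptide, each at 100 nM in HEPES pH 7.4 buffer with BSA and DTT, were combined with compound. Glutathione acceptor and streptavidin donor beads were added, then incubated 30 min at room temperature in the dark. Read-out was AlphaScreen signal.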

[1] = GST-BRD4 (BD1+BD2) vs biotinylated acetyl-histone H4 peptide, AlphaScreen, read-out: BRD4 IC50
[2] = GST-BRD4 (BD1+BD2) / biotinylated acetyl-histone H4 (Lys5,8,12,16) peptide, read-out: IC50, BRD4 binding inhibition

| Structure (SMILES) | IC50 [1] | IC50 [2] [nM] |
| --- | --- | --- |
| Cc1nnc2c(NCCCCN)nc3cc(OC(F)(F)F)ccc3n12 [Example 270, N^1-(1-methyl-7-trifluoromethoxy-[1,2,4]triazolo[4,3-a]quinoxaline-4-yl)-butane-1,4-diamine ditrifluoroacetic acid] | 85 nM | – |
| COc1ccc2c(c1)nc(NCCCCNC(=O)[C@@H](C)O)c1nnc(C)n12 [Example 295, 2-(R)-hydroxy-N-[4-(7-methoxy-1-methyl-[1,2,4]triazolo[4,3-a]quinoxaline-4-ylamino)-butyl]-propaneamide] | 33 nM | ≤ 50 |
| COc1ccc2c(c1)nc(NCCCCNC(=O)C(C)(C)OC(C)=O)c1nnc(C)n12 [Example 296, acetic acid-1-[4-(7-methoxy-1-methyl-[1,2,4]triazolo[4,3-a]quinoxaline-4-ylamino)-butylcarbamoyl]-1-methyl-ethylester] | 96 nM and 27 nM | ≤ 50 |
| COc1ccc2c(c1)nc(NCCCCNC(=O)C(C)(C)O)c1nnc(C)n12 [Example 297, 2-hydroxy-N-[4-(7-methoxy-1-methyl-[1,2,4]triazolo[4,3-a]quinoxaline-4-ylamino)-butyl]-2-methyl-propionamide] | 27 nM | ≤ 50 |
| COc1ccc2c(c1)nc(NCCCCNC(=O)[C@@H](OC)C(C)C)c1nnc(C)n12 [Example 301, 2-(S)-methoxy-N-[4-(7-methoxy-1-methyl-[1,2,4]triazolo[4,3-a]quinoxaline-4-ylamino)-butyl]-3-methyl-butyramide] | 16 nM | ≤ 50 |
| COc1ccc2c(c1)nc(NCCCCNC(=O)COC(C)=O)c1nnc(C)n12 [Example 303, acetic acid-[4-(7-methoxy-1-methyl-[1,2,4]triazolo[4,3-a]quinoxaline-4-ylamino)-butylcarbamoyl]-methylester] | 63 nM | – |
| CCOC(=O)CC(=O)NCCCCNc1nc2cc(OC)ccc2n2c(C)nnc12 [Example 305, N-[4-(7-methoxy-1-methyl-[1,2,4]triazolo[4,3-a]quinoxaline-4-ylamino)-butyl]-malonamic acid ethylester] | 41 nM | ≤ 50 |
| COc1ccc2c(c1)nc(NCCCCNC(=O)[C@H](C(C)C)N1CCOCC1)c1nnc(C)n12 [Example 314, N-[4-(7-methoxy-1-methyl-[1,2,4]triazolo[4,3-a]quinoxaline-4-ylamino)-butyl]-3-methyl-2-(S)-morpholine-4-yl-butyramide] | 56 nM | – |
| COc1ccc2c(c1)nc(NCCCCNC(=O)[C@H](C(C)C)N1CCC(CCO)CC1)c1nnc(C)n12 [Example 317, 2-(S)-[4-(2-hydroxy-ethyl)-piperidine-1-yl]-N-[4-(7-methoxy-1-methyl-[1,2,4]triazolo[4,3-a]quinoxaline-4-ylamino)-butyl]-3-methyl-butyramide] | 31 nM | ≤ 50 |
| COc1ccc2c(c1)nc(NCCCCNC(=O)[C@@H](NC(=O)[C@H](C)O)C(C)C)c1nnc(C)n12 [Example 324, 2-(S)-(2-(S)-hydroxy-propionylamino)-N-[4-(7-methoxy-1-methyl-[1,2,4]triazolo[4,3-a]quinoxaline-4-ylamino)-butyl]-3-methyl-butyramide] | 7 nM | ≤ 10 |
| COc1ccc2c(c1)nc(NCCCCNC(=O)[C@H](Cc1ccc(O)cc1)NC(=O)OC(C)(C)C)c1nnc(C)n12 [Example 325, (S)-{2-(4-hydroxy-phenyl)-1-[4-(7-methoxy-1-methyl-[1,2,4]triazolo[4,3-a]quinoxaline-4-ylamino)-butylcarbamoyl]-ethyl}-carbamic acid-tert-butylester] | 71 nM | – |
| COc1ccc2c(c1)nc(NCCCCNC(=O)[C@@H](N)Cc1ccc(O)cc1)c1nnc(C)n12 [Example 326, 2-(S)-amino-3-(4-hydroxy-phenyl)-N-[4-(7-methoxy-1-methyl-[1,2,4]triazolo[4,3-a]quinoxaline-4-ylamino)-butyl]-propionamide] | 64 nM | – |
| COc1ccc2c(c1)nc(NCCCCNC(=O)N(C)C)c1nnc(C)n12 [Example 334, 3-[4-(7-methoxy-1-methyl-[1,2,4]triazolo[4,3-a]quinoxaline-4-ylamino)-butyl]-1,1-dimethyl-urea] | 60 nM | – |
| COc1cc2nc(NCCCCNC(=O)CC(C)C)c3nnc(C)n3c2cc1Cc1ccc([N+](=O)[O-])cc1 [Example 339, N-{4-[7-methoxy-1-methyl-8-(4-nitro-benzyl)-[1,2,4]triazolo[4,3-a]quinoxaline-4-ylamino]-butyl}-3-methyl-butyramide] | 46 nM | ≤ 50 |
| Cc1nnc2c(NCCCCNC(=O)CC(C)C)nc3cc(OCc4ccc(-c5nn[nH]n5)cc4)ccc3n12 [Example 348, 3-methyl-N-(4-{1-methyl-7-[4-(2H-tetrazol-5-yl)-benzyloxy]-[1,2,4]triazolo[4,3-a]quinoxaline-4-ylamino}-butyl)-butyramide] | 100 nM | – |
| COCCOc1ccc2c(c1)nc(NCCCCNC(=O)OC(C)(C)C)c1nnc(C)n12 [Example 363, {4-[7-(2-methoxy-ethoxy)-1-methyl-[1,2,4]triazolo[4,3-a]quinoxaline-4-ylamino]-butyl}-carbamic acid-tert-butylester] | 16 nM | ≤ 50 |
| COCCOc1ccc2c(c1)nc(NCCCCN)c1nnc(C)n12 [Example 364, N^1-[7-(2-methoxy-ethoxy)-1-methyl-[1,2,4]triazolo[4,3-a]quinoxaline-4-yl]-butane-1,4-diamine ditrifluoroacetic acid] | 98 nM | – |
| COCCOc1ccc2c(c1)nc(NCCCCNC(=O)C(C)C)c1nnc(C)n12 [Example 376, {4-[7-(2-methoxy-ethoxy)-1-methyl-[1,2,4]triazolo[4,3-a]quinoxaline-4-ylamino]-butyl}-isobutyramide] | – | ≤ 50 |
| COCCOc1ccc2c(c1)nc(NCCCCNC(=O)C1CC1)c1nnc(C)n12 [Example 377, cyclopropane carboxylic acid-{4-[7-(2-methoxy-ethoxy)-1-methyl-[1,2,4]triazolo[4,3-a]quinoxaline-4-ylamino]-butyl}-amide] | 39 nM | ≤ 50 |
| COCCOc1ccc2c(c1)nc(NCCCCNC(=O)C(C)(C)OC(C)=O)c1nnc(C)n12 [Example 384, acetic acid-1-{4-[7-(2-methoxy-ethoxy)-1-methyl-[1,2,4]triazolo[4,3-a]quinoxaline-4-ylamino]-butylcarbamoyl}-1-methyl-ethylester] | 41 nM | ≤ 50 |
| COCCOc1ccc2c(c1)nc(NCCCCNC(=O)C(C)(C)O)c1nnc(C)n12 [Example 385, 2-hydroxy-N-{4-(7-(2-methoxy-ethoxy)-1-methyl-[1,2,4]triazolo[4,3-a]quinoxaline-4-ylamino)-butyl}-2-methyl-propionamide] | 49 nM | ≤ 50 |
| COCCOc1ccc2c(c1)nc(NCCCCNC(=O)COC(C)=O)c1nnc(C)n12 [Example 386, acetic acid-{4-[7-(2-methoxy-ethoxy)-1-methyl-[1,2,4]triazolo[4,3-a]quinoxaline-4-ylamino]-butylcarbamoyl}-methylester] | 78 nM | – |
| COCCOc1ccc2c(c1)nc(NCCCCNC(=O)C(C)(C)C(F)(F)F)c1nnc(C)n12 [Example 392, 3,3,3-trifluoro-N-{4-[7-(2-methoxy-ethoxy)-1-methyl-[1,2,4]triazolo[4,3-a]quinoxaline-4-ylamino]-butyl}-2,2-dimethyl-propionamide] | 9 nM | ≤ 10 |
